The results in this text go back to patent publication US11180486B2, “Indolylkojyl methane analogues, process of preparation thereof and use as inhibitor of cancer cells invasion and metastasis” (Council of Scientific & Industrial Research, priority 2017, dated 2021).

The nature of data set [1]: Pharmacokinetic study, intravenous. It is filed as in vivo. The note with it: mouse, plasma, male Balb/c mice, i.v. 2.5 mg/kg b.w. single dose. On the procedure: Pharmacokinetic (PK) Study. Healthy male Balb/c mice (25-30 grams each) were taken to access the PK profile of 5. There were 11 time points for blood collection and 6 animals were there in each sampling time point for maintaining accuracy of the experiment. Animals were administered with 5, intravenously (2.5 mg/kg, b.w.) and control mice were administered with normal saline. A minimum of 100 μL of plasma was collected from each animal at different time points, viz: (0.083, 0.25, 0.5, 1, 2, 4, 6, 8, 12, 16 and 24 h) after dosing with 5 and then acetonitrile (ACN) 400 μL was added to it to precipitate the plasma proteins. The compound was extracted into the solvent, filtered and analyzed by a 6410B Triple quadrupole LC-MS/MS system (Agilent Technologies, USA). Quantification was performed through multiple reaction monitoring (MRM) separately for all the six samples collected individually at each time point by comparing with the standard calibration curve prepared using Agilent Mass Hunter software (version B.04.00). Various PK parameters like; half life (t1/2) (h), C initial C0 (ng/ml), area under the curve AUC(0-∞) (ng*h/ml), Vd (L/kg), Cl (L/h/kg) and Mean Residence Time (h) were calculated using non-compartmental pharmacokinetic data analysis. […] The pharmacokinetic parameters of compound 5 further provide evidence that the molecule has its very good absorption and biodistribution capability through i.v. route of administration.

The test system of data set [2] is MDA-MB-231 cells. The data set is described as follows: Drug potentiation, cell viability (MTT) assay. It is filed as cell-based, human. The note with it: 200 nM 5 plus 200 nM doxorubicin (1:1), 48 h. The procedure:
Drug Potentiation Assay. Briefly, MDA-MB-231 cells were exposed to 200 nM of compound 5, 200 nM of doxorubicin alone and/or combination of both (1:1 ratio) for 48 h in cell viability (MTT) assay, for 5 days in a colony formation assay and subjected to western blotting for the expression of GRP78 and Par-4. The ability of 5 to enhance cell killing was expressed as potentiation index (PI), which was the ratio of the […]. Thus, PI>1 indicates potentiation and PI<1 indicates protection.

For data set [3], the system named is normal breast epithelial (fR2) cells. The data set is described as follows: Cell viability (MTT) assay, normal cells. It is filed as cell-based, human. On the procedure: Cell Culture and Reagents. The cell lines used in this study were procured from American Type Culture Collection (ATCC), Manassas, USA. MCF7, T47D and fR2 cells were cultured in RPMI-1640 medium, whereas the MDA-MB-231 cells were grown in Leibovitz's (L-15) medium supplemented with 10% fetal bovine serum (Gibco) and 1% penicillin/streptomycin (Sigma) in a humidified CO2 incubator (New Brunswick Galaxy 170 R) with 5% CO2. Reagents such as phenylmethylsulfonyl fluoride (PMSF), dithiothreitol (DTT), DMSO, crystal violet, and Bradford's reagent were purchased from Sigma-Aldrich. Protease inhibitor cocktail was procured from Roche. The antibodies for human GRP78, Par-4, MMP-2, MMP-9, NF-kB, E-cadherin and TIMP-1 were procured from Santa-Cruz Biotechnology. The β-actin antibody and the secondary antibodies such as anti-rabbit IgG and anti-mouse IgG were procured from Sigma-Aldrich.
Cell Viability Assay. The cell viability was determined by standard MTT assay method. […] The amount of coloured formazan derivatives formed was measured by taking optical density (OD) using a microplate reader (TECAN, Infinite M200 Pro) at 570 nm and the percentage cell viability was calculated. The IC50 values were calculated using GraphPad Prism software (Version 5.0). […]

Data set [4] concerns MCF7 cells. The data set is described as follows: Cell scattering assay (bFGF stimulated). The data set is classed as cell-based, human. The note with it: bFGF plus 200 nM, 48 h, vs bFGF alone. On the procedure: (§1) Cell Scattering Assay. The procedure was followed according to the previously described method (Amin et al., 2015, Mol. Carcinog). Briefly, MDA-MB-231 and MCF7 cells were trypsinized, seeded in 6 well plates at a density of 1000 cells/well and incubated for 5 days for the formation of small colonies. On the sixth day, exhausted media was replaced by fresh media and cells were stimulated with bFGF (20 ng/mL) along with 5 (200 nM) or doxorubicin for 48 h. Cells were then washed with PBS and photographs were taken under inverted microscope at 20× magnification.

In data set [5] the test system is MDA-MB-231 cells. The data set is described as follows: Cell scattering assay (bFGF stimulated). The note with it: bFGF plus 200 nM, 48 h, vs bFGF alone. It is filed as cell-based, human. The procedure:
as §1

For data set [6], the system named is MCF7 cells. The data set is described as follows: Migration (wound closure) assay. It is filed as cell-based, human. The note with it: after 48 h of incubation. On the procedure: (§2) Migration Assay. The experiment was performed according to the pre-standardized procedure (Rah et al., 2012, PloS one, 7(9). p.e44039). MDA-MB-231 and MCF7 cells were plated in 6-well plates at a concentration of (1×10^6 cells/well) and allowed to form a confluent monolayer for 24 h. On the next day, the monolayer was scratched with a sterile pipette tip (20-200 μl) and washed with serum free medium to remove the detached cells. […] Wounded areas were progressively photographed under an inverted microscope with Nikon D3100 camera at 20× magnification. […]

The subject of data set [7] is MDA-MB-231 cells. Nature of the data set: Migration (wound closure) assay. The data set is classed as cell-based, human. To be noted: after 48 h of incubation. On the procedure:
as §2

The structures appear in SMILES notation. Entries after “also recorded” stand apart in the source; their conditions may differ.

What is called clearance is a measure of how efficiently the substance is removed, as volume per time. The MRT is a mean duration of stay, worked out from the concentration-time curve. The term Vd denotes a proportionality between amount in the body and measured concentration, not a real space. As a reminder, the IC50 is the concentration that inhibits the measured activity by half. `CCCCCCCC(c1oc(CO)cc(=O)c1O)c1c[nH]c2ccccc12` (centres unmarked) [Compound 5, 2-{1-(1H-indol-3-yl)octyl}-3-hydroxy-6-(hydroxymethyl)-4H-pyran-4-one]: the AUC(0-t) in data set [1] (read-out: Area under curve (AUC0-t)) was 395 ng·h/mL. Also, the AUC(0-inf) in data set [1] (read-out: Area under curve (AUC0-∞)) turned out to be 406 ng·h/mL. Moreover, the C0 in data set [1] (read-out: C initial (C0)) stood at 1220 ng/mL. Also, the clearance in data set [1] (read-out: Clearance (Cl) (converted)) is 205 mL/min/kg. In data set [1] (read-out: Half life (t1/2) (converted)), the half-life was 25.8 min. In addition, the MRT in data set [1] (read-out: Mean residence time (MRT)) came out at 27 min. For the same compound, the volume of distribution (Vd) in data set [1] (read-out: Volume of distribution (Vd)) stood at 7.61 L/kg. In the data set on MDA-MB-231 cells [2], the “potentiation index (PI)” value is 3.1. Also, the IC50 in data set [3] (Homo sapiens, FR2, MTT, 44 h + 4 h, mean ± SD of three experiments) worked out at 74 µM. Moreover, the “toxicity towards normal breast epithelial (fR2) cells” value in data set [3] (in words) is given as “non-toxic; also recorded: less/non-toxic”. Also, the results for the cell scattering inhibited with MCF7 cells [4] and with MDA-MB-231 cells [5] were 84.5% and 80%, respectively. Moreover, the values for the suppressed migration in the data set with MCF7 cells [6] and in the data set with MDA-MB-231 cells [7] were 55.4% and 57.3%, respectively.
